Tests used:
[1] = test system: Enterococcus faecalis ATCC 29212; experiment: Broth microdilution MIC (CLSI), Ca2+ adjusted Mueller Hinton broth with 4% human serum albumin; type: cell-based
Description: (§1) Herein, the minimum inhibitory concentration for the growth inhibition was determined by cultivation of the bacteria in Ca^2+ adjusted Mueller Hinton broth (broth microdilution method) according to the CLSI (previously NCCLS) rules (National Committee for Clinical Laboratory Standards. 2003. Methods for dilution antimicrobial susceptibility tests for bacteria that grow aerobically; approved standard - 6th ed. Document M7-A6. Clinical and Laboratory Standards Institute, Wayne, PA, USA). […] The Gram-positive strains tested for the cultivation methods were: • Staphylococcus aureus ATCC 29213 • Enterococcus faecalis ATCC 29212
(§2) The following inocula were incubated: Table 3

[2] = test system: Staphylococcus aureus ATCC 29213; experiment: as above; type: cell-based
Description: as §1, §2

[3] = test system: Streptococcus spp., Staphylococcus spp. and Enterococcus spp.; details: including antibiotic resistant strains (VRE, MRSA); cited from earlier work
[4] = fat emulsion formulation with an oil phase of 8%; cited from earlier work

## ramoplanin
[1]; Ramoplanin : SBE-β-CD 1:0
  Antibiotic activity (MIC): 0.5 µg/mL
[1]; Ramoplanin : SBE-β-CD 1:2
  Antibiotic activity (MIC): 0.5 µg/mL
[1]; Ramoplanin : SBE-β-CD 1:10
  Antibiotic activity (MIC): 0.5 µg/mL
[2]; Ramoplanin : SBE-β-CD 1:0
  Antibiotic activity (MIC): 0.5 µg/mL
[2]; Ramoplanin : SBE-β-CD 1:2
  Antibiotic activity (MIC): 0.5 µg/mL
[2]; Ramoplanin : SBE-β-CD 1:10
  Antibiotic activity (MIC): 0.5 µg/mL
[3]
  general MICs (Minimal Inhibition Concentrations): below 1 µg/ml
[4]
  effectiveness in septicaemia mouse models: effective
